Laboratory results from PubChem BioAssay AID330 (DTP/NCI, 2004).
Several values for one entry are separate records, joined by “and”; a condition that tells them apart may be missing. Equal entries are not always repeated. Toxic doses and inconclusive results are not listed. How the source made its calls: active means survival T/C of 150% or more; inactive means T/C below 125% in these data. Peptide text beside a SMILES is read from it.

Test system: P388 leukemia ip, CD2F1 mice, survival T/C
Test: NCI In Vivo Anticancer Drug Screen. Data for tumor model P388 Leukemia (intraperitoneal) in CD2F1 (CDF1) mice
Conditions: endpoint: median survival time, higher = longer survival
Method in brief: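 Mice carrying the transplanted tumor received test compound or vehicle. Survival was recorded in each group, and the value is the treated-group measurement divided by that of the vehicle-treated control group.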

[1] = dose: 100.0 mg/kg/injection, schedule: Q01DX009 (ip), vehicle: saline with Tween-80
[2] = dose: 200.0 mg/kg/injection, schedule: Q01DX009 (ip), vehicle: saline with Tween-80
[3] = dose: 50.0 mg/kg/injection, schedule: Q01DX005 (ip), vehicle: saline
[4] = dose: 100.0 mg/kg/injection, schedule: Q01DX005 (ip), vehicle: saline
[5] = dose: 200.0 mg/kg/injection, schedule: Q01DX005 (ip), vehicle: saline
[6] = dose: 50.0 mg/kg/injection, schedule: Q01DX009 (ip), vehicle: Klucel (hydroxypropylcellulose) (HPC)
[7] = dose: 100.0 mg/kg/injection, schedule: Q01DX009 (ip), vehicle: Klucel (hydroxypropylcellulose) (HPC)
[8] = dose: 200.0 mg/kg/injection, schedule: Q01DX009 (ip), vehicle: Klucel (hydroxypropylcellulose) (HPC)
[9] = dose: 60.0 mg/kg/injection, schedule: Q01DX005 (ip), vehicle: Klucel (hydroxypropylcellulose) (HPC)
[10] = dose: 120.0 mg/kg/injection, schedule: Q01DX005 (ip), vehicle: Klucel (hydroxypropylcellulose) (HPC)
[11] = dose: 240.0 mg/kg/injection, schedule: Q01DX005 (ip), vehicle: Klucel (hydroxypropylcellulose) (HPC)
[12] = dose: 60.0 mg/kg/injection, schedule: Q01DX005 (ip), vehicle: saline with Tween-80
[13] = dose: 120.0 mg/kg/injection, schedule: Q01DX005 (ip), vehicle: saline with Tween-80
[14] = dose: 240.0 mg/kg/injection, schedule: Q01DX005 (ip), vehicle: saline with Tween-80
[15] = dose: 12.5 mg/kg/injection, schedule: Q01DX005 (ip), vehicle: saline
[16] = dose: 25.0 mg/kg/injection, schedule: Q01DX005 (ip), vehicle: saline
[17] = dose: 50.0 mg/kg/injection, schedule: Q01DX005 (ip), vehicle: Klucel (hydroxypropylcellulose) (HPC)
[18] = dose: 100.0 mg/kg/injection, schedule: Q01DX005 (ip), vehicle: Klucel (hydroxypropylcellulose) (HPC)
[19] = dose: 200.0 mg/kg/injection, schedule: Q01DX005 (ip), vehicle: Klucel (hydroxypropylcellulose) (HPC)

Measured: T/C

CC(=O)Nc1ccc2c(c1)Cc1ccccc1-2
inactive: [1] 100 % of control | [2] 95 % of control | dose: 400.0 mg/kg/injection, schedule: Q01DX009 (ip), vehicle: saline with Tween-80 95 % of control

C=C(CO)C(=O)OC1CC(=C)C2CC(O)C(C)C2C2OC(=O)C(=C)C12 (configuration not stated)
inactive: dose: 0.75 mg/kg/injection, schedule: Q01DX009 (ip), vehicle: Klucel (hydroxypropylcellulose) (HPC) 100 % of control and 114 % of control | dose: 1.5 mg/kg/injection, schedule: Q01DX009 (ip), vehicle: Klucel (hydroxypropylcellulose) (HPC) 104 % of control and 91 % of control | dose: 3.0 mg/kg/injection, schedule: Q01DX009 (ip), vehicle: Klucel (hydroxypropylcellulose) (HPC) 98 % of control and 97 % of control | dose: 6.0 mg/kg/injection, schedule: Q01DX009 (ip), vehicle: Klucel (hydroxypropylcellulose) (HPC) 102 % of control and 107 % of control and 112 % of control | dose: 12.0 mg/kg/injection, schedule: Q01DX009 (ip), vehicle: Klucel (hydroxypropylcellulose) (HPC) 103 % of control | dose: 24.0 mg/kg/injection, schedule: Q01DX009 (ip), vehicle: Klucel (hydroxypropylcellulose) (HPC) 98 % of control

CSCCC(N)C(=O)NC(CC(N)=O)C(=O)O (stereo not drawn) (H-Met-Asn-OH; configuration not given here)
inactive: [3] 98 % of control | [4] 101 % of control | [5] 99 % of control

CCCC(C)N(CC(=O)Nc1ccc(S(N)(=O)=O)cc1)C(C)=O (configuration not stated)
inactive: [6] 100 % of control | [7] 107 % of control | [8] 109 % of control

Nc1nc(-c2cccc([N+](=O)[O-])c2)cc(-c2cc(-c3cccc([N+](=O)[O-])c3)nc(N)n2)n1
inactive: [9] 94 % of control | [10] 90 % of control | [11] 96 % of control

O=c1c2[nH]c3ccccc3sc=2c(=O)n1-c1ccc(Cl)cc1
inactive: [12] 103 % of control | [13] 98 % of control | [14] 94 % of control

CC([C@H](c1ccccc1)C1CCC(C(N)=O)(N2CCOCC2)C1)[N+](=O)[O-] (some centres not stated)
inactive: [9] 99 % of control | [10] 99 % of control | [11] 93 % of control

C[CH2][Sn]([CH2]C)([CH2]CC(=O)OC)[CH2]CC(=O)OC
inactive: [15] 113 % of control | [16] 120 % of control | [4] 119 % of control

O=C1NC(O)c2cccc([N+](=O)[O-])c2O1 (configuration not stated)
inactive: dose: 50.0 mg/kg/injection, schedule: Q01DX005 (ip), vehicle: saline with Tween-80 100 % of control | dose: 100.0 mg/kg/injection, schedule: Q01DX005 (ip), vehicle: saline with Tween-80 105 % of control | dose: 200.0 mg/kg/injection, schedule: Q01DX005 (ip), vehicle: saline with Tween-80 110 % of control

C=CC[P+](C)(c1ccccc1)c1ccccc1
inactive: dose: 0.78 mg/kg/injection, schedule: Q01DX009 (ip), vehicle: saline 94 % of control | dose: 1.56 mg/kg/injection, schedule: Q01DX009 (ip), vehicle: saline 97 % of control | dose: 3.13 mg/kg/injection, schedule: Q01DX009 (ip), vehicle: saline 106 % of control

O=C1CCCC2=C1CC1=C(CCCC1=O)N2
inactive: [17] 94 % of control | [18] 96 % of control | [19] 90 % of control

O=C1CCC(c2n[nH]c(=S)n2-c2ccccc2)N1 (configuration not stated)
inactive: [12] 100 % of control | [13] 97 % of control | [14] 94 % of control

O=c1nc(Oc2ccc([N+](=O)[O-])cc2)nc2ccccn12
inactive: [6] 99 % of control | [7] 87 % of control | [8] 87 % of control

NC(=O)C1C2CCC(O2)C1C(=O)O (configuration not stated)
inactive: dose: 1.56 mg/kg/injection, schedule: Q01DX005 (ip), vehicle: Klucel (hydroxypropylcellulose) (HPC) 99 % of control | dose: 3.12 mg/kg/injection, schedule: Q01DX005 (ip), vehicle: Klucel (hydroxypropylcellulose) (HPC) 97 % of control | dose: 6.25 mg/kg/injection, schedule: Q01DX005 (ip), vehicle: Klucel (hydroxypropylcellulose) (HPC) 95 % of control

CCOC(=O)N(NC(=O)Nc1ccccc1)C(c1ccccc1)c1ccccc1
inactive: dose: 75.0 mg/kg/injection, schedule: Q01DX009 (ip), vehicle: saline with Tween-80 94 % of control | dose: 150.0 mg/kg/injection, schedule: Q01DX009 (ip), vehicle: saline with Tween-80 94 % of control | dose: 300.0 mg/kg/injection, schedule: Q01DX009 (ip), vehicle: saline with Tween-80 98 % of control

CSCc1cc(CO)no1
inactive: [12] 100 % of control | [13] 99 % of control | [14] 106 % of control

CSc1ncn(C)c1C(N)=O
inactive: [17] 97 % of control | [18] 99 % of control | [19] 99 % of control

CC1(C)OC2(C)NS(=O)(=O)c3ccc(Cl)cc3N2C1=O (configuration not stated)
inactive: dose: 50.0 mg/kg/injection, schedule: Q01DX009 (ip), vehicle: saline with Tween-80 106 % of control | [1] 100 % of control | [2] 98 % of control

COc1cc(C(c2cc3c(cc2O)OCO3)N2CCN(C(c3cc(OC)c(O)c(OC)c3)c3cc4c(cc3O)OCO4)CC2)cc(OC)c1O (configuration not stated)
inactive: [12] 91 % of control | [13] 89 % of control | [14] 91 % of control

[Se]=P(N1CCOCC1)(N1CCOCC1)N1CCOCC1
inactive: dose: 13.75 mg/kg/injection, schedule: Q01DX001 (ip), vehicle: Klucel (hydroxypropylcellulose) (HPC) 101 % of control | dose: 27.5 mg/kg/injection, schedule: Q01DX001 (ip), vehicle: Klucel (hydroxypropylcellulose) (HPC) 104 % of control

O=C1OCC/C1=C/OS(=O)(=O)C(F)(F)F
inactive: dose: 18.8 mg/kg/injection, schedule: Q01DX009 (ip), vehicle: distilled water + Tween-80 101 % of control and 107 % of control | dose: 37.5 mg/kg/injection, schedule: Q01DX009 (ip), vehicle: distilled water + Tween-80 110 % of control | dose: 75.0 mg/kg/injection, schedule: Q01DX009 (ip), vehicle: distilled water + Tween-80 118 % of control and 123 % of control

C1CCC2C(C1)CCC1COCN12 (configuration not stated)
inactive: dose: 12.5 mg/kg/injection, schedule: Q01DX005 (ip), vehicle: Klucel (hydroxypropylcellulose) (HPC) 98 % of control | [15] 108 % of control | dose: 25.0 mg/kg/injection, schedule: Q01DX005 (ip), vehicle: Klucel (hydroxypropylcellulose) (HPC) 100 % of control | [16] 100 % of control | [17] 105 % of control | [3] 103 % of control and 119 % of control | [18] 114 % of control | [4] 118 % of control and 124 % of control | [5] 101 % of control

Clc1cncc(N2CCNCC2)n1
inactive: dose: 12.5 mg/kg/injection, schedule: Q01DX009 (ip), vehicle: Klucel (hydroxypropylcellulose) (HPC) 100 % of control | dose: 25.0 mg/kg/injection, schedule: Q01DX009 (ip), vehicle: Klucel (hydroxypropylcellulose) (HPC) 99 % of control | [6] 108 % of control and 91 % of control

COC(=O)c1ccccc1NC1OC(CO)C(O)C1O (configuration not stated)
inactive: [12] 104 % of control | [13] 98 % of control | [14] 93 % of control

CC(=O)Oc1cccc(C#N)c1
inactive: dose: 100.0 mg/kg/injection, schedule: Q04DX003 (ip), vehicle: saline with Tween-80 100 % of control | dose: 200.0 mg/kg/injection, schedule: Q04DX003 (ip), vehicle: saline with Tween-80 100 % of control | dose: 400.0 mg/kg/injection, schedule: Q04DX003 (ip), vehicle: saline with Tween-80 104 % of control

CC(C)C(N)C(=O)NC(C(=O)O)C(C)C (configuration not stated)
inactive: dose: 6.25 mg/kg/injection, schedule: Q01DX005 (ip), vehicle: saline 95 % of control | [15] 95 % of control | [16] 96 % of control | [3] 98 % of control | [4] 88 % of control and 104 % of control | [5] 100 % of control

Nc1cc2c(cc1C=O)OCO2
inactive: dose: 100.0 mg/kg/injection, schedule: Q04DX003 (ip), vehicle: Klucel (hydroxypropylcellulose) (HPC) 99 % of control | dose: 200.0 mg/kg/injection, schedule: Q04DX003 (ip), vehicle: Klucel (hydroxypropylcellulose) (HPC) 93 % of control | dose: 400.0 mg/kg/injection, schedule: Q04DX003 (ip), vehicle: Klucel (hydroxypropylcellulose) (HPC) 107 % of control

Cc1ccc(/C=C/C(=O)C(C)CN(C)C)cc1C (configuration not stated)
inactive: [3] 106 % of control | [4] 109 % of control

O=c1[nH]c2cc(Cl)ccc2nc1/C=C(\O)c1ccc(O)cc1
inactive: [12] 102 % of control | [13] 95 % of control | [14] 95 % of control
